Values joined by “and” are separate entries in the source; they are usually repeats but may differ in a detail not shown here. Equal entries are not always repeated. Toxic doses and inconclusive results are not listed. Rule for the calls: active = survival T/C of 150% or more; inactive = T/C below 125% in these data.
Tested on: CD2F1 mice, L1210 leukemia ip, survival T/C
Assay: NCI In Vivo Anticancer Drug Screen. Data for tumor model L1210 Leukemia (intraperitoneal) in CD2F1 (CDF1) mice
Conditions: higher = longer survival
Procedure, shortened: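 Compound-dosed mice with transplantable tumor versus matched vehicle controls; endpoint ratio T/C reported.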

[1] = endpoint: mean survival time, dose: 100.0 mg/kg/injection, schedule: Q01DX009 (ip), vehicle: saline with Tween-80
[2] = endpoint: mean survival time, dose: 100.0 mg/kg/injection, schedule: Q04DX003 (ip), vehicle: saline with Tween-80
[3] = endpoint: mean survival time, dose: 200.0 mg/kg/injection, schedule: Q01DX009 (ip), vehicle: saline with Tween-80
[4] = endpoint: mean survival time, dose: 400.0 mg/kg/injection, schedule: Q04DX003 (ip), vehicle: saline with Tween-80
[5] = endpoint: mean survival time, dose: 100.0 mg/kg/injection, schedule: Q01DX001 (ip), vehicle: saline with Tween-80
[6] = endpoint: mean survival time, dose: 100.0 mg/kg/injection, schedule: Q04DX002 (ip), vehicle: saline with Tween-80
[7] = endpoint: mean survival time, dose: 200.0 mg/kg/injection, schedule: Q01DX001 (ip), vehicle: saline with Tween-80
[8] = endpoint: mean survival time, dose: 200.0 mg/kg/injection, schedule: Q04DX002 (ip), vehicle: saline with Tween-80
[9] = endpoint: mean survival time, dose: 400.0 mg/kg/injection, schedule: Q01DX001 (ip), vehicle: saline with Tween-80
[10] = endpoint: mean survival time, dose: 200.0 mg/kg/injection, schedule: Q04DX003 (ip), vehicle: saline with Tween-80
[11] = endpoint: mean survival time, dose: 50.0 mg/kg/injection, schedule: Q01DX009 (ip), vehicle: saline with Tween-80
[12] = endpoint: mean survival time, dose: 75.0 mg/kg/injection, schedule: Q01DX001 (ip), vehicle: saline

Measured: T/C

O=c1[nH]ccc2sccc12
inactive: [1] 100 % of control | [2] 96 % of control | [3] 105 % of control | [4] 103 % of control

O=C(O)c1c(Sc2ccccc2)cccc1Sc1ccccc1
inactive: endpoint: mean survival time, dose: 25.0 mg/kg/injection, schedule: Q04DX002 (ip), vehicle: saline with Tween-80 93 % of control | endpoint: mean survival time, dose: 50.0 mg/kg/injection, schedule: Q04DX002 (ip), vehicle: saline with Tween-80 93 % of control | [5] 89 % of control | [6] 93 % of control | [7] 93 % of control | [8] 95 % of control | [9] 90 % of control | endpoint: mean survival time, dose: 400.0 mg/kg/injection, schedule: Q04DX002 (ip), vehicle: saline with Tween-80 87 % of control

O=C(O)c1ccccc1.[Cu+2]
inactive: endpoint: mean survival time, dose: 5.0 mg/kg/injection, schedule: Q01DX001 (ip), vehicle: saline 96 % of control | endpoint: mean survival time, dose: 10.0 mg/kg/injection, schedule: Q01DX001 (ip), vehicle: saline 91 % of control | endpoint: mean survival time, dose: 20.0 mg/kg/injection, schedule: Q01DX001 (ip), vehicle: saline 107 % of control | endpoint: mean survival time, dose: 40.0 mg/kg/injection, schedule: Q01DX001 (ip), vehicle: saline 102 % of control | endpoint: mean survival time, dose: 80.0 mg/kg/injection, schedule: Q01DX001 (ip), vehicle: saline 107 % of control

C=C(CC(=O)OC)C(=O)O
inactive: endpoint: mean survival time, dose: 12.5 mg/kg/injection, schedule: Q01DX009 (ip), vehicle: saline 98 % of control | endpoint: mean survival time, dose: 25.0 mg/kg/injection, schedule: Q01DX009 (ip), vehicle: saline 98 % of control | endpoint: mean survival time, dose: 50.0 mg/kg/injection, schedule: Q01DX009 (ip), vehicle: saline 107 % of control | [2] 95 % of control | [10] 98 % of control | [4] 97 % of control

COc1cc(Cl)ccc1NC(=O)Nc1c(C)n(C)n(-c2ccccc2)c1=O
inactive: [11] 90 % of control | [1] 90 % of control

[B-][N+]12CN3CN(CN(C3)C1)C2
inactive: [12] 101 % of control

CCC(CO)(CO)[N+](=O)[O-]
inactive: endpoint: mean survival time, dose: 100.0 mg/kg/injection, schedule: Q01DX009 (ip), vehicle: saline 100 % of control | endpoint: mean survival time, dose: 200.0 mg/kg/injection, schedule: Q01DX009 (ip), vehicle: saline 100 % of control | endpoint: mean survival time, dose: 400.0 mg/kg/injection, schedule: Q01DX009 (ip), vehicle: saline 94 % of control

CCOC(=O)COc1ccc(OC)cc1C=O
inactive: [5] 93 % of control | [7] 93 % of control | [9] 97 % of control

Cc1ccc(NC(=O)NC2CCCCC2)cc1
inactive: [2] 93 % of control | [10] 90 % of control | [4] 93 % of control

O=C1c2ccccc2C(=O)c2c(O)c(Cc3cccnc3)cc(O)c21
inactive: endpoint: mean survival time, dose: 100.0 mg/kg/injection, schedule: Q01DX009 (ip), vehicle: saline sonified 98 % of control | endpoint: mean survival time, dose: 200.0 mg/kg/injection, schedule: Q01DX009 (ip), vehicle: saline sonified 98 % of control | endpoint: mean survival time, dose: 400.0 mg/kg/injection, schedule: Q01DX009 (ip), vehicle: saline sonified 102 % of control

Cc1cc(O)c2c(c1)C(=O)C=CC2=O
inactive: endpoint: mean survival time, dose: 0.12 mg/kg/injection, schedule: Q01DX009 (ip), vehicle: other 102 % of control | endpoint: mean survival time, dose: 0.25 mg/kg/injection, schedule: Q01DX009 (ip), vehicle: other 108 % of control | endpoint: mean survival time, dose: 0.5 mg/kg/injection, schedule: Q01DX009 (ip), vehicle: other 97 % of control | endpoint: mean survival time, dose: 1.0 mg/kg/injection, schedule: Q01DX009 (ip), vehicle: other 93 % of control | endpoint: mean survival time, dose: 2.0 mg/kg/injection, schedule: Q01DX009 (ip), vehicle: other 97 % of control

Clc1[nH]nc2ccccc12
inactive: endpoint: mean survival time, dose: 12.5 mg/kg/injection, schedule: Q01DX009 (ip), vehicle: saline with Tween-80 102 % of control | endpoint: mean survival time, dose: 12.5 mg/kg/injection, schedule: Q04DX003 (ip), vehicle: saline with Tween-80 98 % of control | endpoint: mean survival time, dose: 25.0 mg/kg/injection, schedule: Q01DX001 (ip), vehicle: saline with Tween-80 90 % of control | endpoint: mean survival time, dose: 25.0 mg/kg/injection, schedule: Q01DX009 (ip), vehicle: saline with Tween-80 105 % of control | endpoint: mean survival time, dose: 25.0 mg/kg/injection, schedule: Q04DX003 (ip), vehicle: saline with Tween-80 93 % of control and 97 % of control | endpoint: mean survival time, dose: 50.0 mg/kg/injection, schedule: Q01DX001 (ip), vehicle: saline with Tween-80 98 % of control | [11] 89 % of control | endpoint: mean survival time, dose: 50.0 mg/kg/injection, schedule: Q04DX003 (ip), vehicle: saline with Tween-80 101 % of control | [5] 93 % of control | [1] 101 % of control | [2] 98 % of control and 97 % of control | [3] 89 % of control | [10] 100 % of control | [4] 86 % of control

O=C1N[C@H]2[C@H](O)[C@H](O)[C@@H](O)[C@H](O)[C@@H]2c2cc3c(c(O)c21)OCO3
inactive: endpoint: median survival time, dose: 0.38 mg/kg/injection, schedule: Q01DX009 (ip), vehicle: saline + alcohol 120 % of control | endpoint: median survival time, dose: 0.75 mg/kg/injection, schedule: Q01DX009 (ip), vehicle: saline + alcohol 122 % of control | endpoint: median survival time, dose: 1.5 mg/kg/injection, schedule: Q01DX009 (ip), vehicle: saline + alcohol 121 % of control

CC(C)CC(=O)NC(C(=O)NC(C(=O)NC(CC(C)C)C(O)CC(=O)NC(C)C(=O)NC(CC(C)C)C(O)CC(=O)O)C(C)C)C(C)C (stereo unspecified)
inactive: endpoint: mean survival time, dose: 3.12 mg/kg/injection, schedule: Q01DX009 (ip), vehicle: Klucel (hydroxypropylcellulose) (HPC) 96 % of control | endpoint: mean survival time, dose: 6.25 mg/kg/injection, schedule: Q01DX009 (ip), vehicle: Klucel (hydroxypropylcellulose) (HPC) 100 % of control | endpoint: mean survival time, dose: 12.5 mg/kg/injection, schedule: Q01DX009 (ip), vehicle: Klucel (hydroxypropylcellulose) (HPC) 96 % of control | endpoint: mean survival time, dose: 25.0 mg/kg/injection, schedule: Q01DX009 (ip), vehicle: Klucel (hydroxypropylcellulose) (HPC) 100 % of control | endpoint: mean survival time, dose: 50.0 mg/kg/injection, schedule: Q01DX009 (ip), vehicle: Klucel (hydroxypropylcellulose) (HPC) 94 % of control | endpoint: mean survival time, dose: 100.0 mg/kg/injection, schedule: Q01DX009 (ip), vehicle: Klucel (hydroxypropylcellulose) (HPC) 97 % of control

O=c1[nH]cnc2c1CN(c1ccc(Cl)cc1)C2
inactive: [12] 101 % of control | endpoint: mean survival time, dose: 150.0 mg/kg/injection, schedule: Q01DX001 (ip), vehicle: saline 90 % of control | endpoint: mean survival time, dose: 300.0 mg/kg/injection, schedule: Q01DX001 (ip), vehicle: saline 93 % of control

NC(=S)N/N=C1\CC2CC1C1C=CCC21 (stereo unspecified)
inactive: [6] 111 % of control | [8] 98 % of control

Cc1cn(C2CC(O)C(CO)O2)c(=O)nc1N1CCSCC1 (stereo unspecified)
inactive: endpoint: median survival time, dose: 12.5 mg/kg/injection, schedule: Q01DX005 (ip), vehicle: distilled water + Tween-80 101 % of control | endpoint: median survival time, dose: 25.0 mg/kg/injection, schedule: Q01DX005 (ip), vehicle: distilled water + Tween-80 103 % of control | endpoint: median survival time, dose: 50.0 mg/kg/injection, schedule: Q01DX005 (ip), vehicle: distilled water + Tween-80 102 % of control | endpoint: median survival time, dose: 100.0 mg/kg/injection, schedule: Q01DX005 (ip), vehicle: distilled water + Tween-80 101 % of control | endpoint: median survival time, dose: 200.0 mg/kg/injection, schedule: Q01DX005 (ip), vehicle: distilled water + Tween-80 102 % of control

NCCN
inactive: [5] 106 % of control | [9] 97 % of control

CC(=O)NCC(C)OC(C)=O (stereo unspecified)
inactive: endpoint: mean survival time, dose: 100.0 mg/kg/injection, schedule: Q04DX003 (ip), vehicle: saline 101 % of control | endpoint: mean survival time, dose: 200.0 mg/kg/injection, schedule: Q04DX003 (ip), vehicle: saline 97 % of control | endpoint: mean survival time, dose: 400.0 mg/kg/injection, schedule: Q04DX003 (ip), vehicle: saline 98 % of control

Source: PubChem BioAssay AID256 (DTP/NCI, 2004)
